This note sets out measurements from patent publication US6492137B1, “Response element compositions and assays employing same” (The Salk Institute for Biological Studies, priority 1989, dated 2002).

One data set has as its target T1, ER (Homo sapiens, UniProt P03372).
T1 construct: expressed in transfected cells; host or cells: CV-1 (monkey kidney)
T1 sequence (P03372 1-595): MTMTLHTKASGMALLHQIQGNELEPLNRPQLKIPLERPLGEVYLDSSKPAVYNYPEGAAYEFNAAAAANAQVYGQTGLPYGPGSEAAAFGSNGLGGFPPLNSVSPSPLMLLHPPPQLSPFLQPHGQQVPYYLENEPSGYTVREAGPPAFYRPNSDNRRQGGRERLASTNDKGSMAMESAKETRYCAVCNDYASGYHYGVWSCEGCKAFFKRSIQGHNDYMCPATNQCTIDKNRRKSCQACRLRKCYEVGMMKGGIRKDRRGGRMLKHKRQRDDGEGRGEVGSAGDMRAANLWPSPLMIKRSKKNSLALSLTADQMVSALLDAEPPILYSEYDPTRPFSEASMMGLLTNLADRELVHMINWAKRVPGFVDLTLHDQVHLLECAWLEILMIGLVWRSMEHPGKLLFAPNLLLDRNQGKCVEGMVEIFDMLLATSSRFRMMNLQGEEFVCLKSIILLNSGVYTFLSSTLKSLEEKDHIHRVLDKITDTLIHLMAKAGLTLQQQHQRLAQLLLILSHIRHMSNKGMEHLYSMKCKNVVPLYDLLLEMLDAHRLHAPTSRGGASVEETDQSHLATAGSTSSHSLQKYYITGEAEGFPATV
The data set can be described thus: Cotransfection of ER with construct βRE1 in CV-1 cells. It counts as cell-based. The settings on record: absence or addition of the appropriate ligand. From the text:
(§1) Inspection of the sequences of βRE1, βRE2, and βRE3 (see FIG. 2b) identifies a tandem repeat of the 6 bp motif. The center to center separation of 11 bp between these repeats is one turn of the DNA helix. […] Apparently, a single half site element of the RARβ gene would reciprocally be responsive to the TR, ER, and/or other members of the receptor superfamily.

The target of data set [1] is T2, vitamin D receptor (VD3R) (Homo sapiens, UniProt P11473).
T2 construct: expressed in transfected cells; host or cells: CV-1 (monkey kidney)
T2 sequence (P11473 1-427): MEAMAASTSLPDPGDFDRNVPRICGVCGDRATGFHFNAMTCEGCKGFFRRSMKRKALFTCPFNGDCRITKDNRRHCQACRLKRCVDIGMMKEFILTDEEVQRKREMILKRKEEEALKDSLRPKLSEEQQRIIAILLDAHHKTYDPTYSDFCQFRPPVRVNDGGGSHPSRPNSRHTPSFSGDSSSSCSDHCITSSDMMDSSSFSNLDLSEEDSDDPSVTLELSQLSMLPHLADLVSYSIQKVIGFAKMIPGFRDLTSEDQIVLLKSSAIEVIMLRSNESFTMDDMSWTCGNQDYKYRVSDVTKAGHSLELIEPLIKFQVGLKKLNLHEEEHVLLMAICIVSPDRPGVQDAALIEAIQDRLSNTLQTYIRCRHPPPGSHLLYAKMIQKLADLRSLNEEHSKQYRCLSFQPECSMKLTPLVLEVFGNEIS
The experiment in a line: Cotransfection of vitamin D receptor with construct βRE1 in CV-1 cells. The class given is cell-based. The settings on record: cognate ligand.
Text: as §1

A further data set addresses T3, RAR (Homo sapiens, UniProt P10276).
T3 construct: expressed in transfected cells; host or cells: CV-1 (monkey kidney)
T3 sequence (P10276 1-462): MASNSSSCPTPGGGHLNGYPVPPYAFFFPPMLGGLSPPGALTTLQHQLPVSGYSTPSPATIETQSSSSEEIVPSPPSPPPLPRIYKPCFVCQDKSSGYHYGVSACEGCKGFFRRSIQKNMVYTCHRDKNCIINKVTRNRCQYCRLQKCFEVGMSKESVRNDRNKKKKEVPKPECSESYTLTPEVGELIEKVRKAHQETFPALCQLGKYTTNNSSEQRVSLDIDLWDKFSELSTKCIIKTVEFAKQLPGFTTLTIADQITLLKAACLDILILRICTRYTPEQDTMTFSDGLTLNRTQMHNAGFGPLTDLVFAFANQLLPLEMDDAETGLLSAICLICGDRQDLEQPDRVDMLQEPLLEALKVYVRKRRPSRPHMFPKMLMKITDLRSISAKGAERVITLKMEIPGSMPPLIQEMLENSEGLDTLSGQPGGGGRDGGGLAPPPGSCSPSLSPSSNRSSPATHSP
The experiment in a line: Delta-MTV constructs, RA induction in CV-1 cells with cotransfected RAR expression vector. The class given is cell-based. The settings on record: Delta-MTV-CAT constructs; CV-1 cells. The method, then: as §1
(§2) Cells were transfected in 10 cm dishes with 10 μg of DNA containing 5 μg of reporter plasmid, 1-2 μg of either RSV-LUC (a), or RSV-βGAL or pCH110 (c and d), pGEM4 as carrier DNA, and for the experiments shown in a and d, 1 μg of RSV-RAR expression vector or the same amount of an RSV vector generating a nonsense transcript. Cells were harvested 1 day after addition of retinoic acid. All CAT assays represent equivalent amounts of β-galactosidase activity; β-GAL assays were normalized to luciferase activity.

In a further data set the target is T4, GR (Homo sapiens, UniProt P04150).
T4 construct: expressed in transfected cells; host or cells: CV-1 (monkey kidney)
T4 sequence (P04150 1-777): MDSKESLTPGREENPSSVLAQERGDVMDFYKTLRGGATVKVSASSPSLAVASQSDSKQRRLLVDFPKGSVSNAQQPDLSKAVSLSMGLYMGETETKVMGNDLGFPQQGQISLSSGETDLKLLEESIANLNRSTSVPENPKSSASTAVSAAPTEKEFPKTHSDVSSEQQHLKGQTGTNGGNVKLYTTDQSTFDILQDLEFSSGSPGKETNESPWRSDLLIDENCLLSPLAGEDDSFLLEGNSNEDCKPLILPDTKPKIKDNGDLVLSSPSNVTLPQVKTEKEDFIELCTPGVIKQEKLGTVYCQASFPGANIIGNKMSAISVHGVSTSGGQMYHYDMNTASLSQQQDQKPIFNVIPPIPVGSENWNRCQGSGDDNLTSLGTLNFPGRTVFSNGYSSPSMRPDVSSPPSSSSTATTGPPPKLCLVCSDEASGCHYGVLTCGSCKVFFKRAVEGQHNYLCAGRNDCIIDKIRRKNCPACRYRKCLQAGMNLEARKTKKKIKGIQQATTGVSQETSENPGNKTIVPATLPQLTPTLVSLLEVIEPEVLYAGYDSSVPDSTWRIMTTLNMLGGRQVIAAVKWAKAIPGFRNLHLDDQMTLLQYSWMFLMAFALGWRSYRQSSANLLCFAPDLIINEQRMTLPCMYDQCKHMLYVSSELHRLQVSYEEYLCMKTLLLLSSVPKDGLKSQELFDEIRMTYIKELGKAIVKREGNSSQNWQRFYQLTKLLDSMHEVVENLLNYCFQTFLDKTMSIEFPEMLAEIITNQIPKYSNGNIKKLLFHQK
The experiment in a line: Cotransfection of GR with construct βRE1 in CV-1 cells. The class given is cell-based. The settings on record: absence or addition of the appropriate ligand.
Text: as §1

Another data set relates to TR. The data set can be described thus: Cotransfection of TR with construct βRE1 in CV-1 cells. The class given is cell-based. The conditions noted are these: cognate ligand.
Text: as §1

In data set [2] the test system is endogenous RA receptor. The experiment in a line: Delta-MTV-CAT constructs, RA induction in CV-1 cells without cotransfected RAR expression vector. It counts as cell-based, monkey. The method, then:
as §2

For another data set, the target named is T5, TRβ (Homo sapiens, UniProt P10828).
T5 sequence (P10828 1-461): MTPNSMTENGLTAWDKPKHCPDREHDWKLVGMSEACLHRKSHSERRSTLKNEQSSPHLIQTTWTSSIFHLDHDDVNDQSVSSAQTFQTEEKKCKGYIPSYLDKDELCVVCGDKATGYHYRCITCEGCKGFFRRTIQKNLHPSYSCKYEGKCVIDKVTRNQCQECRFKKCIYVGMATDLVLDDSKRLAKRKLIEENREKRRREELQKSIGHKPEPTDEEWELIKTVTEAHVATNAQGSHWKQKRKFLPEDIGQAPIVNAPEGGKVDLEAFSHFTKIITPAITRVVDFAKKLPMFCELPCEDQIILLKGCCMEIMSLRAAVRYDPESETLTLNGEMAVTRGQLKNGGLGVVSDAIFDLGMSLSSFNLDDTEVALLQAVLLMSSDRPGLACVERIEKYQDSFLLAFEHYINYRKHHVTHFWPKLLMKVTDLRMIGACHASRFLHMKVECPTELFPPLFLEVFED
The data set can be described thus: Gel retardation DNA-binding assay with TRβ-expressing COS cell extracts. Set-up: expressed in transfected cells; host or cells: COS cells (whole-cell extract). The method in brief:
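Extracts of COS cells transfected with pCMX TRβ expression plasmid, 48 h post-transfection; 5 μg protein pre-incubated on ice 20 min with poly dI/dC, then 40 fmole 32P-labelled oligonucleotide 30 min at room temperature. Complexes resolved on 5% polyacrylamide gel.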

In another data set the target is T6, RARα (Homo sapiens, UniProt P10276).
T6 sequence (P10276 1-462): T3 sequence (P10276 1-462)
The data set can be described thus: Gel retardation DNA-binding assay with RARα-expressing COS cell extracts. More on the design: expressed in transfected cells; host or cells: COS cells (whole-cell extract). The procedure: For DNA binding assays, COS cells were cultured in DMEM with 10% calf bovine serum and transfected by the calcium phosphate method with 20 μg of the pCMX receptor expression plasmid for 6 hours followed by a glycerol shock. After incubating the transfected COS cells for another 48 hours, the cells were harvested to prepare extracts for the DNA binding assay, carried out as described by Damm et al., Nature 339: 593-597 (1989). The extracts were made in 20 mM HEPES (pH 7.4), 0.4 M KCl, 2 mM DTT and 20% glycerol. A similar method was employed to prepare a whole cell extract from F9 stem cells. For the binding, 5 μg (COS) or 10 μg (F9) of proteins was incubated on ice for 20 minutes, first in 20 mM HEPES, 80 mM KCl, 1 mM DTT, 0.1% NP40, 2.5 μg of poly dI/dC, and 10% glycerol (cold competitor oligonucleotides, when included, were added during this pre-incubation period). Then 40 fmole of ^32P-labeled oligonucleotide probe (1-2×10^5 cpm, prepared by filling-in reaction using Klenow polymerase in the presence of α-^32P-dCTP) was added to the reaction mixture, followed by incubation at room temperature for 30 minutes. The receptor-DNA complexes were resolved by electrophoresis through 5% polyacrylamide gel containing 5% glycerol at 6 V/cm at room temperature.
Oligonucleotides listed in FIG. 3 were used as a probe to test specific DNA-binding of the RARα and TRβ in a gel retardation assay. On the βRARE, a faint background binding activity was detected in the mock transfected COS cell extract. […] In each case the result obtained from in vivo transactivation and in vitro DNA binding are consistent.
Using the mobility shift assay, the DNA-binding capacity of extracts from COS cells expressing TRβ and RARα to these sequences was also tested. […] This pattern is consistent with that of the in vivo activation (FIG. 4). A reciprocal pattern was obtained when the same oligonucleotides were used to compete RARα binding to the ^32P-labeled βRARE. […] This provides a striking example of the role of half-site spacing in generating a functional response element.

Data set [3] deals with endogenous RA receptor. The experiment in a line: Survey of cell lines for RA-dependent transactivation of the βRARE without transfected RAR. The class given is cell-based. The conditions noted are these: CV-1, F9, P19, CHO, HeLa, NIH 3T3, Rat2 fibroblasts, HT1080.T, chick embryo fibroblasts, quail QT6 cells.

Consider “5′-AAGCTTAAG-GGTTCA-CCGAA-AGTTCA-CACGCATATATTAGCTT-3′ (SEQ ID NO:5) (AAGCTTAAGGGTTCACCGAAAGTTCACTCGCATATATTAGCTT; DNA, backbone not given here) [βRE1, oligonucleotide including the β retinoic acid response element]”, for which the “activation with cotransfected ER” value with ER is “failed to result in appreciable activation”. Besides, in data set [1], the “activation with cotransfected vitamin D receptor, fold less” value is recorded as 10- to 20 fold. Also, the “increase of induction by cotransfection of RAR-alpha expression vector” value with RAR was “two-fold”. The “activation with cotransfected GR” value with GR was “failed to result in appreciable activation”. Further, the “activation with cotransfected TR, fold less” value in the data set on TR is 10- to 20 fold. In the data set with endogenous RA receptor [2], the “RA-dependent induction in the absence of cotransfected RAR expression vector” value is “robust RA-dependent induction”.

Turning to “5′-AAGCTTAAG-GGTTCA-CCGAA-AGTTCA-CTCGCATAGCTT-3′ (SEQ ID NO:6) (AAGCTTAAGGGTTCACCGAAAGTTCACTCGCATAGCTT; DNA, backbone not given here) [βRE2, oligonucleotide including the β retinoic acid response element; βRARE corresponds to βRE2]”, the “increase of induction by cotransfection of RAR-alpha expression vector” value with RAR was “two-fold”. Also, the “TRβ binding to labeled oligonucleotide probe” value with TRβ (gel retardation, TRβ COS cell extract) is reported as “weak, yet detectable binding activity”. Besides, the “competition for TRβ binding (mobility shift assay)” value with TRβ (unlabeled competitor oligonucleotide, COS cells expressing TRβ) is on record as “poor competitors”. Also, the “RA-dependent induction in the absence of cotransfected RAR expression vector” value in the data set with endogenous RA receptor [2] is “robust RA-dependent induction”. Further, in the data set with RARα (gel retardation, RARα COS cell extract), the “RARα binding to labeled oligonucleotide probe” value is “dramatically enhanced”. Besides, the “competition for RARα binding to 32P-labeled βRARE” value with RARα (unlabeled competitor oligonucleotide, COS cell extracts) was “effective competitors”. The “RA-dependent transactivation in the absence of transfected RAR expression vector” value in the data set on endogenous RA receptor [3] is “efficiently transactivate”.
